According to the supplement of paper PMC12137928:
Where a name gives a salt, the structure may show the parent alone.

System: HCT116
Conditions: 72 h
Outline: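 HCT116 cells went into 1536-well plates at 250 per well. CellTiter-Glo luminescence was expressed relative to vehicle (0%) and positive control (-100%) and then pattern-corrected. Both IC50 and maximal efficacy were taken from four-parameter Hill fits.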

Row | IC50 cell viability (ICRF193 0 nM) [µM] | IC50 cell viability (ICRF193 200 nM) [µM] | SMILES
1 | > 45.8 | > 45.8 | O=P(O)(O)C(O)(Cc1cnc2ccccn12)P(=O)(O)O [Minodronic acid]
2 | > 45.8 | > 45.8 | Nc1cc(N2CCCCC2)nc(N)[n+]1[O-] [Minoxidil]
3 | > 45.8 | > 45.8 | Nc1nc(CC(=O)Nc2ccc(CCNC[C@H](O)c3ccccc3)cc2)cs1 [Mirabegron]
4 | > 45.8 | > 45.8 | CN1CCN2c3ncccc3Cc3ccccc3C2C1 (configuration not stated) [Mirtazapine]
5 | > 45.8 | > 45.8 | CO[C@@]12[C@H](COC(N)=O)C3=C(C(=O)C(C)=C(N)C3=O)N1C[C@@H]1N[C@@H]12 [Mitomycin C]
6 | > 45.8 | > 45.8 | Clc1ccc(C(c2ccccc2Cl)C(Cl)Cl)cc1 (configuration not stated) [Mitotane]
7 | > 45.8 | > 45.8 | CN(c1nccc(=O)[nH]1)C1CCN(c2nc3ccccc3n2Cc2ccc(F)cc2)CC1 [Mizolastine]
8 | > 45.8 | > 45.8 | NC(=O)c1ncn([C@@H]2O[C@H](CO)[C@@H](O)[C@H]2O)c1O [Mizoribine]
9 | > 45.8 | > 45.8 | O=C(NCCN1CCOCC1)c1ccc(Cl)cc1 [Moclobemide]
10 | > 45.8 | > 45.8 | CCOC(=O)[C@H](CCc1ccccc1)N[C@@H](C)C(=O)N1Cc2cc(OC)c(OC)cc2C[C@H]1C(=O)O [Moexipril hydrochloride]
11 | > 45.8 | > 45.8 | COc1ccc(-c2noc(CC(=O)O)c2-c2ccc(OC)cc2)cc1 [Mofezolac]
12 | > 45.8 | > 45.8 | CCc1c(C)[nH]c2c1C(=O)C(CN1CCOCC1)CC2 (configuration not stated) [Molindone hydrochloride]
13 | > 45.8 | > 45.8 | CCOC(=O)[N-]c1c[n+](N2CCOCC2)no1 [Molsidomine]
14 | > 45.8 | > 45.8 | Oc1ccc(OCc2ccccc2)cc1 [Monobenzone]
15 | > 45.8 | > 45.8 | CC(C)(O)c1ccccc1CC[C@@H](SCC1(CC(=O)O)CC1)c1cccc(/C=C/c2ccc3ccc(Cl)cc3n2)c1 [Montelukast sodium]
16 | > 45.8 | > 45.8 | Cc1ccc(C2(O)CCN(CCCC(=O)c3ccc(F)cc3)CC2)cc1 [Moperone]
17 | > 45.8 | > 45.8 | Cc1ccsc1/C=C/C1=NCCCN1C [Morantel tartrate]
18 | > 45.8 | > 45.8 | CCOC(=O)Nc1ccc2c(c1)N(C(=O)CCN1CCOCC1)c1ccccc1S2 [Moricizine hydrochloride]
19 | > 45.8 | > 45.8 | CCOc1cc(N)c(Cl)cc1C(=O)NCC1CN(Cc2ccc(F)cc2)CCO1 (configuration not stated) [Mosapride citrate]
20 | > 45.8 | > 45.8 | CO[C@@]1(NC(=O)C(C(=O)O)c2ccc(O)cc2)C(=O)N2C(C(=O)O)=C(CSc3nnnn3C)CO[C@@H]21 (some centres not stated) [Moxalactam disodium]
21 | > 45.8 | > 45.8 | COc1c(N2C[C@@H]3CCCN[C@@H]3C2)c(F)cc2c(=O)c(C(=O)O)cn(C3CC3)c12 [Moxifloxacin (Hydrochloride)]
22 | > 45.8 | > 45.8 | CC(=O)Oc1cc(C(C)C)c(OCCN(C)C)cc1C [Moxisylyte hydrochloride]
23 | > 45.8 | > 45.8 | COc1nc(C)nc(Cl)c1NC1=NCCN1 [Moxonidine hydrochloride hydrate]
24 | > 45.8 | > 45.8 | O=C(O)[C@@H](O)[C@H](O)[C@H](O)[C@@H](O)C(=O)O [Mucic acid]
25 | > 45.8 | > 45.8 | C/C(=C\C(=O)OCCCCCCCCC(=O)O)C[C@@H]1OC[C@H](C[C@@H]2O[C@H]2[C@@H](C)[C@H](C)O)[C@@H](O)[C@H]1O [Mupirocin]

Row | IC50 cell viability (ICRF193 0 nM) [µM] | IC50 cell viability (ICRF193 200 nM) [µM] | SMILES
26 | > 45.8 | > 45.8 | Cl.Cl.c1ccc(CNCCNCc2ccccc2)cc1 [N,N'-Dibenzylethane-1,2-diamine dihydrochloride]
27 | > 45.8 | > 45.8 | C[N+](C)(C)CCCCCC[N+](C)(C)C [N,N,N,N',N',N'-Hexamethylhexane-1,6-diaminium]
28 | > 45.8 | > 45.8 | CN(C)CC(=O)O [N,N-DIMETHYLGLYCINE HYDROCHLORIDE]
29 | > 45.8 | > 45.8 | CN(C)Cc1ccccc1 [N,N-Dimethylbenzylamine]
30 | > 45.8 | > 45.8 | CC(=O)Nc1ccc(S(=O)(=O)Nc2cc(C)on2)cc1 [N-Acetyl sulfamethoxazole]
31 | > 45.8 | > 45.8 | CC(=O)N[C@@H](Cc1ccc(O)cc1)C(=O)O [N-Acetyl-L-tyrosine]
32 | > 45.8 | > 45.8 | O=C1CCC(=O)N1CO [N-Hydroxymethylsuccinimide]
33 | > 45.8 | > 45.8 | c1ccc2sc(SN3CCOCC3)nc2c1 [N-Oxydiethylenebenzothiazole-2-sulfenamide]
34 | > 45.8 | > 45.8 | NC(=O)c1ccc[n+]([C@@H]2O[C@H](COP(=O)([O-])OP(=O)(O)OC[C@H]3O[C@@H](n4cnc5c(N)ncnc54)[C@H](O)[C@@H]3O)[C@@H](O)[C@H]2O)c1 [NAD+]
35 | > 45.8 | > 45.8 | c1ccc2ccccc2c1 [NAPHTHALENE, ZONE REFINED]
36 | > 45.8 | > 45.8 | C#C[C@]1(OC(C)=O)CC[C@H]2[C@@H]3CCC4=CC(=O)CC[C@@H]4[C@H]3CC[C@@]21C [NORETHINDRONE ACETATE]
37 | > 45.8 | > 45.8 | C#C[C@]1(O)CC[C@H]2[C@@H]3CCC4=C(CCC(=O)C4)[C@H]3CC[C@@]21C [NORETHYNODREL]
38 | > 45.8 | > 45.8 | CC(C)N(CCCCOCC(=O)NS(C)(=O)=O)c1cnc(-c2ccccc2)c(-c2ccccc2)n1 [NS-304]
39 | > 45.8 | > 45.8 | COc1ccc2cc(CCC(C)=O)ccc2c1 [Nabumetone]
40 | > 45.8 | > 45.8 | CC1CCc2c(N3CCC(O)CC3)c(F)cc3c(=O)c(C(=O)O)cn1c23 (configuration not stated) [Nadifloxacin]
41 | > 45.8 | > 45.8 | CC(C)(C)NCC(O)COc1cccc2c1CC(O)C(O)C2 (configuration not stated) [Nadolol]
42 | > 45.8 | > 45.8 | N=C(N)Nc1ccc(C(=O)Oc2ccc3cc(C(=N)N)ccc3c2)cc1 [Nafamostat mesilate]
43 | > 45.8 | > 45.8 | CCOc1ccc2ccccc2c1C(=O)N[C@@H]1C(=O)N2[C@@H]1SC(C)(C)[C@@H]2C(=O)O [Nafcillin sodium monohydrate]
44 | > 45.8 | > 45.8 | CCN(CC)CCOC(=O)C(Cc1cccc2ccccc12)CC1CCCO1 (configuration not stated) [Nafronyl oxalate]
45 | > 45.8 | > 45.8 | CCn1cc(C(=O)O)c(=O)c2ccc(C)nc21 [Nalidixic acid]
46 | > 45.8 | > 45.8 | CC(=O)N[C@@H](CCC(N)=O)C(=O)O [Nalpha-Acetyl-L-glutamine]
47 | > 45.8 | > 45.8 | c1ccc2c(CC3=NCCN3)cccc2c1 [Naphazoline hydrochloride]
48 | > 45.8 | > 45.8 | COc1ccc2cc([C@H](C)C(=O)O)ccc2c1 [Naproxen sodium]
49 | > 45.8 | > 45.8 | CNS(=O)(=O)CCc1ccc2[nH]cc(C3CCN(C)CC3)c2c1 [Naratriptan hydrochloride]
50 | > 45.8 | > 45.8 | CC(C)[C@H]1CC[C@H](C(=O)N[C@H](Cc2ccccc2)C(=O)O)CC1 [Nateglinide]

Row | SMILES | IC50 cell viability (ICRF193 0 nM) [µM] | IC50 cell viability (ICRF193 200 nM) [µM]
51 | c1ccc2sc(SNC3CCCCC3)nc2c1 [N-Cyclohexyl-2-benzothiazolesulfenamide] | > 45.8 | > 45.8
52 | CC([C@H](O)c1ccccc1)N(C)C (stereo partly drawn) [N-METHYL (-)EPHEDRINE [1R,2S]] | > 45.8 | > 45.8
53 | CC1C=CC=CCCC=CC=CC=CC=CC(OC2OC(C)C(O)C(N)C2O)CC2OC(O)(CC(O)C(O)CCC(O)CC(O)CC(O)CC(=O)OC(C)C(C)C1O)CC(O)C2C(=O)O (configuration not stated) [NYSTATIN] | > 45.8 | > 45.8
54 | Oc1ccc2c3c1O[C@H]1[C@@H](O)CC[C@@]4(O)[C@@H](C2)N(CC2CCC2)CC[C@]314 [Nalbuphine hydrochloride] | > 45.8 | > 45.8
55 | CN(C(=O)/C=C/c1ccoc1)[C@@H]1CC[C@@]2(O)[C@H]3Cc4ccc(O)c5c4[C@@]2(CCN3CC2CC2)[C@H]1O5 [Nalfurafine hydrochloride] | > 45.8 | > 45.8
56 | C=C1CC[C@@]2(O)[C@H]3Cc4ccc(O)c5c4[C@@]2(CCN3CC2CC2)[C@H]1O5 [Nalmefene] | > 45.8 | > 45.8
57 | C=CCN1CC[C@]23c4c5ccc(O)c4O[C@H]2[C@@H](OCCOCCOCCOCCOCCOCCOCCOC)CC[C@@]3(O)[C@H]1C5 [Naloxegol (oxalate)] | > 45.8 | > 45.8
58 | C=CCN1CC[C@]23c4c5ccc(O)c4O[C@H]2C(=O)CC[C@@]3(O)[C@H]1C5 [Naloxone] | > 45.8 | > 45.8
59 | O=C1CC[C@@]2(O)[C@H]3Cc4ccc(O)c5c4[C@@]2(CCN3CC2CC2)[C@H]1O5 [Naltrexone hydrochloride] | > 45.8 | > 45.8
60 | CCCCCCCCCC(=O)O[C@H]1CC[C@H]2[C@@H]3CCC4=CC(=O)CC[C@@H]4[C@H]3CC[C@]12C [Nandrolone decanoate] | > 45.8 | > 45.8
61 | C[C@]12CC[C@H]3[C@@H](CCC4=CC(=O)CC[C@@H]43)[C@@H]1CC[C@@H]2OC(=O)CCc1ccccc1 [Nandrolone phenpropionate] | > 45.8 | > 45.8
